The target in data set [1] is T1, Recombinant human Aβ1–42 peptide (Homo sapiens, UniProt P05067).
T1 construct: Recombinant human 1,1,1,3,3,3-hexafluoro-2-propanol pretreated Aβ1–42 peptide; purchased Merck Millipore
As to the kind of experiment: Inhibition of Aβ1-42 aggregation (Thioflavin-T fluorometric assay). The following applies: for inhibition at 10 µM: 10 µM compound and 1.5 µM Aβ1-42, mean ± standard deviation of two independent experiments. The class given is biochemical. The method, then: 2. Thioflavin-T (ThT) Fluorometric Assay
Recombinant human 1,1,1,3,3,3-hexafluoro-2-propanol pretreated Aβ1–42 peptide (Merck Millipore, Darmstadt, Germany) was dissolved in DMSO to give 75 µM stock solution. The stock solution was further diluted in HEPES buffered solu tion (150 mM HEPES, pH 7.4, 150 mM NaCl), to 7.5 µM. Aβ1–42 solution was then added to the test compounds in black-walled 96-well plate, and diluted with ThT solution (final concentration of ThT was 10 µM). Final mixture contained 1.5 µM Aβ1–42, 10 µM of test compounds, and 3% DMSO. ThT fluorescence was measured every 5 min (λex = 440 nm, λem = 490 nm), with the medium continuously shaking between measurements using a 96-well microplate reader (Synergy™ H4, BioTek Instruments, Inc., Winooski, VT, USA). The fluorescence intensities at the plateau reached after 24 h in the absence and presence of the test compound were averaged, and the average fluorescence of the corresponding wells at t = 15 min was subtracted. The Aβ1–42 aggregation inhibitory potency is expressed as the percentage inhibition (% inh = (1 − Fi/F0) × 100%), where Fi is the increase in fluorescence of Aβ1–42 treated with the test compound, and F0 is the increase in fluorescence of Aβ1–42 alone.
1. LeVine, H. Thioflavine T interaction with synthetic Alzheimer’s disease beta-amyloid peptides:
Detection of amyloid aggregation in solution. Protein Sci. Publ. Protein Soc. 1993, 2, 404–410.

Data set [2] can be described thus: in vitro. The following applies: human, HepG2 cells, 24 h, MTT, read-out: In vitro toxicity (% cell viability); for viability at 24 h, 1 µM: HepG2, 1 µM; for viability at 24 h, 3 µM: HepG2, 3 µM; for viability at 24 h, 10 µM: HepG2, 10 µM; for viability at 24 h, 30 µM: HepG2, 30 µM; for viability at 24 h, 100 µM: HepG2, 100 µM; for viability at 24 h, 300 µM: HepG2, 300 µM; for viability at 24 h, 1 mM: HepG2, 1 mM. The class given is cell-based. The method, then:
(§1) A prerequisite for any effective lead drug is to keep its cytotoxicity at the lowest possible level. In this regard, we submitted the four most promising compounds (3Ab, 3Bb, 3Cb and 3Ba) to an in vitro toxicologic evaluation (MTT assay) using human hepatocellular carcinoma cell line (HepG2) which represents a good probe to evaluate hepatotoxic effects. […].
(§2) HepG2 cells were purchased from American Type Culture Collection. The cells were cultured in Eagle’s Minimum Essential Medium (Ozyme, France) supplemented with 10% fetal bovine serum, 1X non-essential amino acids, 100 units/mL penicillin and […] streptomycin (Dutscher, Brumath, France). Cultures were kept under a CO2/air (5%/95%) humidified atmosphere at 37 °C. Prior to the experiment, cells were seeded in 96-well culture plates at a density of 0.1 × 10^6 cells per well. After 24 h of incubation, the culture medium was refreshed and 100 µL of the test compounds or DMSO (0.1%) were added. […] For the MTT assay, after 24 h of treatment, cells were incubated with 50 µL MTT (0.5 mg/mL, Sigma Aldrich, city, France) at 37 °C for 2 h. Plates were centrifuged, MTT was removed and 100 µL DMSO was distributed per well. The absorbance at 570 nm was measured using microplate reader (brand). Cell viability was expressed as percentage of cell viability compared to controls (DMSO, 0.1%).

For data set [3], the system named is HepG2 cells. The data set can be described thus: in vitro. The following applies: HepG2, MTT, concentrations up to 1000 μM. The class given is cell-based. The method, then: as §1, §2
Data set [4] is described as follows: in vitro. As to conditions: for Papp at 100 µM: PAMPA, pH 7.4; for BBB Penetration Estimation CNS (+/−): PAMPA-BBB class. Here is the method:
Penetration across the BBB is an essential property for compounds targeting the CNS. […] The filter membrane of the donor plate was coated with PBL (Polar Brain Lipid, Avanti, AL, USA) in dodecane (4 µL of 20 mg/mL PBL in dodecane) and the acceptor well was filled with 300 µL of PBS pH 7.4 buffer ([…]). Tested compounds were dissolved first in DMSO and that diluted with PBS pH 7.4 to reach the final concentration 100 µM in the donor well. […] 300 µL of the donor solution was added to the donor wells ([…]) and the donor filter plate was carefully put on the acceptor plate so that coated membrane was “in touch” with both donor solution and acceptor buffer. Test compound diffused from the donor well through the lipid membrane (Area = 0.28 cm^2) to the acceptor well. The concentration of the drug in both donor and the acceptor wells was assessed after 3, 4, 5 and 6 h of incubation in quadruplicate using the UV plate reader Synergy HT (Biotek, Winooski, VT, USA) at the maximum absorption wavelength of each compound.

In data set [5] the target is T2, Electrophorus electricus AChE (EeAChE) (Electrophorus electricus, UniProt O42275).
T2 construct: purified AChE from Electrophorus electricus (Type V-S, Sigma-Aldrich); purchased Sigma-Aldrich Type V-S
As to the kind of experiment: Inhibition of EeAChE (Ellman's assay). The class given is biochemical. The following applies: mean ± SEM, at least three independent experiments. The method, then:
For the preliminary screening of the inhibitory potencies, Electrophorus electricus AChE (EeAChE) and horse serum BuChE (eqBuChE) were used following the Ellman’s assay.
Assessment of the inhibitory power of BCPOs was performed following the spectrophotometric method of Ellman using purified AChE from Electrophorus electricus (Type V-S, Sigma-Aldrich) or BuChE from horse serum (lyophilized powder, Sigma-Aldrich). Enzymes were first dissolved in 0.1 M phosphate buffer (pH 8.0) and then aliquoted in small vials for easy handling. Compounds stock solutions in DMSO (10 mM) were diluted when necessary with DMSO to prepare appropriate dilutions of each compound. The assay was performed in a final volume of 3 mL of a 0.1 M phosphate-buffered solution at pH 8.0, containing 5,5′-dithiobis-2-nitrobenzoic acid (DTNB, 2625 µL, 0.35 mM, final concentration), EeAChE (29 µL, 0.035 U/mL final concentration) or eqBuChE (60 µL, 0.05 U/mL final concentration) tested compound (3 µL, different concentrations) and 1% (w/v) Bovine Albumin Serum phosphate-buffered (pH 8.0) solution (BSA, 40 µL). The inhibition in comparison to control without compound was determined by pre-incubating this blend at room temperature with each compound at nine different concentrations for 10 min. Then, acetylthiocholine iodide (105 µL, 0.35 mM, final concentration) or butyrylthiocholine iodide (150 µL, 0.5 mM final concentration) was added and incubated for another 15 min at rt. […] Calculation of IC50 values was performed with GraphPad Prism 5. Each concentration was measured in triplicate. Data are expressed as mean ± SEM.

T1 sequence (P05067 672-713): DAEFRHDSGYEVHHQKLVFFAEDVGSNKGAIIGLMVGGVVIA
T2 sequence (O42275 24-633): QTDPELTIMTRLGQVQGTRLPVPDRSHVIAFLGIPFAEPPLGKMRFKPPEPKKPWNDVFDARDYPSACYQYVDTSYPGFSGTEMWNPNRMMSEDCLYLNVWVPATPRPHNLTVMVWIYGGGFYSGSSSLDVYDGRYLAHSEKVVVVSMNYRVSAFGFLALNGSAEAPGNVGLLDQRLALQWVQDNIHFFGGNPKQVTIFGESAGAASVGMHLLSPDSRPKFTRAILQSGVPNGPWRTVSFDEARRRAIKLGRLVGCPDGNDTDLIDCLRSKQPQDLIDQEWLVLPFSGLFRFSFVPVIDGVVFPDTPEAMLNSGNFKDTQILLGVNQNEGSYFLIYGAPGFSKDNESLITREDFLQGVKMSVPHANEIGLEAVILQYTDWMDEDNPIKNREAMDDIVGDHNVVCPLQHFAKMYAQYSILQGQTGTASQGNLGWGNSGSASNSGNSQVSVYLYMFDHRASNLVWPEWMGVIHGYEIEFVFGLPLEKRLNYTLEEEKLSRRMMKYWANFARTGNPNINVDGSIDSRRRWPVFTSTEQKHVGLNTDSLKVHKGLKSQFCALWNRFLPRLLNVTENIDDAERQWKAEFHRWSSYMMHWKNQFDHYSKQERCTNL

For orientation: inhibition means the share of the control response that was lost under treatment. As a reminder, the viability is a read-out of living cells in per cent, often relative to untreated cells. A word on the Papp: it is the rate of passage across a membrane or cell layer, normalised by area and donor concentration. As usually defined, the IC50 is the concentration that gives 50% inhibition. As for `O=c1c2c(nc3n1CCCC3)Oc1ccc3ccccc3c1C2c1ccccc1` (centres unmarked) [3Ab, 15-Phenyl-10,11,12,15-tetrahydro-9H-benzo[5,6]chromeno[2,3-d]pyrido[1,2-a]pyrimidin-14-one], the “Aβ1–42 aggregation inhibition (in words)” value in data set [1] (10 µM compound) is on record as “weak inhibition power”. Besides, in data set [1], the inhibition at 10 µM was 13.6 ± 2.1%. In data set [2], the viability at 24 h, 1 µM is 99.3 ± 4%; the viability at 24 h, 3 µM was 95.3 ± 2.3%; the viability at 24 h, 10 µM is 98.5 ± 2.5%; the viability at 24 h, 30 µM stood at 91.5 ± 4.5%. Moreover, in data set [2], the viability at 24 h, 100 µM was determined as 101 ± 3.1%; the viability at 24 h, 300 µM turned out to be 110 ± 5.5%; the viability at 24 h, 1 mM was found to be 110 ± 4.4%. Moreover, the “hepatotoxicity on HepG2 cells (in words)” value in data set [3] was “non-hepatotoxic”. In data set [4], the Papp at 100 µM is 7.2 ± 0.6 ×10⁻⁶ cm/s and the “BBB Penetration Estimation CNS (+/−)” value was “CNS (+) (‘CNS (+)’ (high BBB permeability predicted); Pe (10^−6 cm·s^−1) > 4.0)”. For the same compound, half-maximal inhibition in data set [5] (IC50) was put at 55.5 ± 7.1 nM.
In the case of `COc1cccc(C2c3c(nc4n(c3=O)CCC4)Oc3ccc4ccccc4c32)c1` (centres unmarked) [3Ba, 14-(3′Methoxyphenyl)-10,11-dihydro-14H-benzo[5,6]chromeno[2,3-d]pyrrolo[1,2-a]pyrimidin-13(9H)-one], the inhibition at 10 µM in data set [1] is below 10%. In data set [2], the viability at 24 h, 1 µM was determined as 109 ± 2%; the viability at 24 h, 3 µM amounted to 108 ± 4.8%; the viability at 24 h, 10 µM is 106 ± 3.5%; the viability at 24 h, 30 µM was found to be 99.2 ± 4.2%. Also, in data set [2], the viability at 24 h, 100 µM came to 97 ± 5.4%; the viability at 24 h, 300 µM came to 108 ± 2.8%; the viability at 24 h, 1 mM was found to be 120 ± 6.8%. The “hepatotoxicity on HepG2 cells (in words)” value in data set [3] was “non-hepatotoxic”. Also, in data set [4], the Papp at 100 µM was found to be 4.6 ± 0.77 ×10⁻⁶ cm/s and the “BBB Penetration Estimation CNS (+/−)” value is recorded as “CNS (+) (‘CNS (+)’ (high BBB permeability predicted); Pe (10^−6 cm·s^−1) > 4.0)”. The IC50 in data set [5] came out at 60.7 ± 4.5 nM.
On to `COc1cccc(C2c3c(nc4n(c3=O)CCCC4)Oc3ccc4ccccc4c32)c1` (centres unmarked) [3Bb, 15-(3′-Methoxyphenyl)-10,11,12,15-tetrahydro-9H-benzo[5,6]chromeno[2,3-d]pyrido[1,2-a]pyrimidin-14-one], for which the inhibition at 10 µM in data set [1] was below 10%. In addition, in data set [2], the viability at 24 h, 1 µM was found to be 108 ± 2.4%; the viability at 24 h, 3 µM came out at 111 ± 8.7%; the viability at 24 h, 10 µM turned out to be 105 ± 4.2%; the viability at 24 h, 30 µM is 104 ± 5%. In addition, in data set [2], the viability at 24 h, 100 µM came out at 112 ± 2.3%; the viability at 24 h, 300 µM came out at 118 ± 7.3%; the viability at 24 h, 1 mM was 128 ± 5%. Moreover, the “hepatotoxicity on HepG2 cells (in words)” value in data set [3] was “non-hepatotoxic”. Further, in data set [4], the Papp at 100 µM was determined as 3.6 ± 0.57 ×10⁻⁶ cm/s and the “BBB Penetration Estimation CNS (+/−)” value is “CNS (+/−) (‘CNS (+/−) (BBB permeability uncertain); Pe (10^−6 cm·s^−1) from 4.0 to 2.0)”. In data set [5], this compound registered an IC50 of 30.5 ± 2.8 nM.
Consider `Cc1ccc(C2c3c(nc4n(c3=O)CCCC4)Oc3ccc4ccccc4c32)cc1` (centres unmarked) [3Cb, 15-(4′-Methylphenyl)-10,11,12,15-tetrahydro-9H-benzo[5,6]chromeno[2,3-d]pyrido[1,2-a]pyrimidin-14-one], for which the inhibition at 10 µM in data set [1] was below 10%. Further, in data set [2], the viability at 24 h, 1 µM was 106 ± 7%; the viability at 24 h, 3 µM was found to be 103 ± 10.8%; the viability at 24 h, 10 µM worked out at 110 ± 9.1%; the viability at 24 h, 30 µM turned out to be 113 ± 5.8%. Also, in data set [2], the viability at 24 h, 100 µM was found to be 103 ± 5.7%; the viability at 24 h, 300 µM came out at 113 ± 5.2%; the viability at 24 h, 1 mM worked out at 110 ± 8%. Moreover, in data set [3], the “hepatotoxicity on HepG2 cells (in words)” value is “non-hepatotoxic”. In addition, the IC50 in data set [5] came to 55.9 ± 12.7 nM.

Values taken from article PMC6273488, “Synthesis and Biological Evaluation of Benzochromenopyrimidinones as Cholinesterase Inhibitors and Potent Antioxidant, Non-Hepatotoxic Agents for Alzheimer’s Disease” (Molecules, 2016).
